{"source": "patent US20130023575A1", "about": "“COMPOSITIONS AND METHODS FOR THE TREATMENT OF OCULAR SURFACE ALLERGIES” (priority 2011, published 2013)", "assay": "bromfenac in solution in the flowable mucoadhesive polymer carrier", "type": "physicochemical", "details": "by weight of the composition", "from_the_text": "As used herein the term “retained in or carried with” or “retaining or carrying” embraces generally all ways that bromfenac can be associated with the flowable mucoadhesive polymer. For example, bromfenac can be in aqueous solution dispersed throughout the polymer. A bromfenac concentration of up to about 0.36% will be in solution mixed with or dispersed throughout the flowable mucoadhesive polymer carrier. Bromfenac can also be in suspension with the polymer depending on its concentration. For example, when bromfenac is used in an amount more than about 0.36% by weight of the composition, some of the bromfenac can be in suspension with the polymer carrier while an amount of up to about […] of bromfenac will still be in solution and mixed with the polymer carrier.", "data": [{"compound": "Nc1c(CC(=O)O)cccc1C(=O)c1ccc(Br)cc1", "note": "[bromfenac]", "values": [{"measurement": "bromfenac concentration in solution mixed with or dispersed throughout the polymer carrier", "result": "up to 0.36%"}]}]}
